Reference: patent publication US20100298377A1, “NOVEL SUBSTITUTED INDAZOLES, THE PREPARATION THEREOF AND USE OF SAME IN THERAPEUTICS” (SANOFI-AVENTIS, priority 2007, published 2010)
Where a name gives a salt, the structure may show the parent alone.

Key:
[1] = target: AKT1 (Homo sapiens, UniProt P31749, S473D); experiment: Determination of the IC50 for AKT1 (HTRF); format: biochemical; settings: AKT1 without PH domain, activated by PDK1
Method: Determination of the IC50 for AKT1
The inhibitory potential of the compounds is evaluated by HTRF, a time-resolved fluorescence technique based on non-radiative energy transfer (FRET). […] This phosphorylation allows the kinase activity of AKT1 to be activated.
Starting with a 10 mM solution of inhibitors, 3 μl are taken and placed in a 96-well polypropylene plate containing 27 μl of 100% DMSO. The various test compounds are diluted in cascade by taking 15 μl of compound, to which are added 30 μl of 100% DMSO.
The various reaction components are added in the following manner:
Next, 10 μl of the inhibitor solution are added. Finally, the reaction is initiated by adding 10 μl of a solution containing both 100 μM of ATP and 10 μM of biotinylated peptide. The sequence of this peptide is as follows: biot-[…] (reference Neosystem SP000560). The plate is then covered with a plastic film, agitated and finally incubated at RT for 30 minutes. […] After incubation overnight at 4° C., the plate is read using an Ultra evolution spectrophotometer from Tecan. […] All the tests are performed in duplicate and the mean of the two tests is calculated.
For each point, a delta F is calculated in the following manner:
(§1) R(Ratio)=counts665 nm/counts620 nm
ΔF % is calculated by the Tecan Ultra Evolution machine.

[2] = target: T1, Human S6K1 (24-421) T412E protein (Homo sapiens, UniProt P23443, T412E); experiment: Determination of the IC50 for S6K1 (HTRF substrate phosphorylation test); format: biochemical; settings: S6K1 activated by PDK1, ATP 30 μM
T1 construct: Human S6K1 (24-421) T412E protein; made in house; host or cells: Sf21 insect cells
T1 sequence (P23443 24-421 T412E): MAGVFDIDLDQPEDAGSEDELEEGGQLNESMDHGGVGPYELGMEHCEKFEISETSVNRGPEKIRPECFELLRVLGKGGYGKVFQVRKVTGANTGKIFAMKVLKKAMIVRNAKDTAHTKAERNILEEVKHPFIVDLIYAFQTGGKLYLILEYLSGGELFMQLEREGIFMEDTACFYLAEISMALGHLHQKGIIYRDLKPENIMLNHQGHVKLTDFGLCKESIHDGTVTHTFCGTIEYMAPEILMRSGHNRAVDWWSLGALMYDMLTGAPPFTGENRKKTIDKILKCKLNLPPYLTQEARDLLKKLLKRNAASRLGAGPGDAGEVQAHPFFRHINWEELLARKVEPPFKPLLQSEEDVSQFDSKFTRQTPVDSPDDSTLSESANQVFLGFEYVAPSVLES
Method: Determination of the IC50 for S6K1
The inhibitory potential of the compounds for S6K1 is evaluated in an enzymatic test of phosphorylation of substrate in HTRF (Homogenous Time-Resolved Fluorescence) format. Human S6K1 (24-421) T412E protein is expressed in sf21 cells and purified by chromatography on a nickel chelate column. It is activated by PDK1.
The test comprises two steps, both performed at RT. The phosphorylation reaction takes place during the first step and the revelation step is performed during the second. […] The final concentrations of compounds thus obtained during the incubation period range from 10 μM to 0.17 nM and the concentration of enzyme is 2 nM. After incubation for 20 minutes, the reaction is stopped and the revelation initiated by addition of 30 μl of a mixture of streptavidin XL 665 Xlent, ref. 611SAXLB Cis bio international, and a europium cryptate-coupled anti-phospho-GSK3 antibody, ref. 64CUSKAZ Cis bio international, dissolved in the revelation buffer (HEPES/NaOH 166.7 mM, EDTA 221.7 mM, KF 667.7 mM, BSA 0.167%, pH 7.0). The reaction takes place in a black half-well plate ref. 3694 Costar.
A mixture of the reaction medium after each addition of reagent is obtained by agitation for a few minutes at 700-1000 rpm on a Heidolph Titramax 100 machine. The reading is taken on a TECAN Ultra Evolution machine after at least one night and up to 3 nights at 4° C. The reading settings are as follows: excitation wavelength 320 nm, emission wavelengths 620 and 665 nm, lag time 150 μs, integration time 500 μs.
For each point, the ΔF % is calculated as follows:
as §1
The IC50 values are calculated by means of the XLfit4 205 equation.

AKT1, sequence (P31749 118-480 S473D limits assumed): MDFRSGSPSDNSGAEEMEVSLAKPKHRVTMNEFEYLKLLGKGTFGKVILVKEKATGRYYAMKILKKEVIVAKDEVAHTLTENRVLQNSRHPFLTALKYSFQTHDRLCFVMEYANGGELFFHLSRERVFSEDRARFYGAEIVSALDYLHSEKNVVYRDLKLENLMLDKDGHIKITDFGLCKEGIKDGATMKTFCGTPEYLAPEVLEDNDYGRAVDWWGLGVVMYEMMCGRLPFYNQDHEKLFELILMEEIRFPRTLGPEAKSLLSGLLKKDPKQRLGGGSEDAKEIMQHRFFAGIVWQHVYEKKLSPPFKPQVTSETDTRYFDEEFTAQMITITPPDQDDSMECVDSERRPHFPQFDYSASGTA

| melting point | IC50 [1] | IC50 [2] | Structure (SMILES) |
| --- | --- | --- | --- |
| 164 °C | – | – | CN1CCCCC1C(NC(=O)Nc1cc(F)c2[nH]nc(NC(=O)c3ccccc3)c2c1)c1ccccc1 (as salt: fumaric acid salt) [Ex 19, N-[7-Fluoro-5-({[(1-methylpiperid-2-yl)(phenyl)methyl]carbamoyl}amino)-1H-indazol-3-yl]benzamide((S,2S),(R,2R))] |
| 221 to 222 °C | – | – | CN1CCCCC1C(NC(=O)Nc1cc(F)c2[nH]nc(N)c2c1)c1ccccc1 (as salt: fumaric acid salt) [Ex 20, 1-(3-Amino-7-fluoro-1H-indazol-5-yl)-3-[(1-methylpiperid-2-yl)(phenyl)methyl]urea((S,2S),(R,2R))] |
| 224 to 227 °C | – | – | CN1CCCCC1C(NC(=O)Nc1cc(F)c2[nH]ncc2c1)c1ccccc1 (as salt: fumaric acid salt) [Ex 21, 1-(7-Fluoro-1H-indazol-5-yl)-3-[(1-methylpiperid-2-yl)(phenyl)methyl]urea((S,2S),(R,2R))] |
| 227 °C | – | – | CN1CCCCC1C(NC(=O)Nc1ccc2[nH]nc(C#Cc3ccccc3)c2c1)c1ccccc1 (as salt: fumaric acid salt) [Ex 23, 1-[(1-Methylpiperid-2-yl)(phenyl)methyl]-3-[3-(phenylethynyl)-1H-indazol-5-yl]urea((S,2S),(R,2R))] |
| 244 °C | – | – | CN1CCCCC1C(NC(=O)Nc1ccc2[nH]nc(C#Cc3ccc(F)cc3)c2c1)c1ccccc1 (as salt: fumaric acid salt) [Ex 24, 1-{3-[(4-Fluorophenyl)ethynyl]-1H-indazol-5-yl}-3-[(1-methylpiperid-2-yl)(phenyl)methyl]urea((S,2S),(R,2R))] |
| 230 °C | – | – | CN1CCCCC1C(NC(=O)Nc1ccc2[nH]nc(C#Cc3cccnc3)c2c1)c1ccccc1 (as salt: fumaric acid salt) [Ex 25, 1-[(1-Methylpiperid-2-yl)(phenyl)methyl]-3-[3-(pyrid-3-ylethynyl)-1H-indazol-5-yl]urea((S,2S),(R,2R))] |
| 160 °C | – | – | O=C(Nc1ccc2[nH]nc(C#Cc3ccccc3)c2c1)N[C@@H](c1ccc(Cl)c(Cl)c1)[C@@H]1CCCCN1 (as salt: fumaric acid salt) [Ex 26, 1-{(S)-(3,4-Dichlorophenyl)[(2S)-piperid-2-yl]methyl}-3-[3-(phenylethynyl)-1H-indazol-5-yl]urea] |
| 205 °C | – | – | CN1CCCCC1C(NC(=O)Nc1ccc2[nH]nc(CCc3ccccc3)c2c1)c1ccccc1 (as salt: fumaric acid salt) [Ex 27, 1-[(1-Methylpiperid-2-yl)(phenyl)methyl]-3-[3-(2-phenylethyl)-1H-indazol-5-yl]urea((S,2S),(R,2R))] |
| 194 °C | – | – | CN1CCCCC1C(c1ccccc1)N(C)C(=O)Nc1ccc2[nH]ncc2c1 (as salt: fumaric acid salt) [Ex 32, 3-(1H-Indazol-5-yl)-1-methyl-1-[(1-methylpiperid-2-yl)phenylmethyl]urea((S,2S),(R,2R))] |
| 205 °C | – | – | CN(C(=O)NC(c1ccccc1)C1CCCCN1C)c1ccc2[nH]ncc2c1 (as salt: fumaric acid salt) [Ex 33, 1-(1H-Indazol-5-yl)-1-methyl-3-[(1-methylpiperid-2-yl)(phenyl)methyl]urea((S,2S),(R,2R))] |
| 208 °C | – | – | O=C(Nc1ccc2[nH]ncc2c1)N[C@@H](c1cc(F)cc(Cl)c1)[C@@H]1CCCCN1 (as salt: hydrochloride) [Ex 3, 1-{(S)-(3-Chloro-5-fluorophenyl)[(2S)-piperid-2-yl]methyl}-3-(1H-indazol-5-yl)urea] |
| 192 °C | – | – | CN1CCCCC1C(NC(=O)Nc1ccc2[nH]ncc2c1)c1cc(F)cc(Cl)c1 (stereo not drawn) (as salt: hydrochloride) [Ex 11, 1-[(3-Chloro-5-fluorophenyl)(1-methylpiperid-2-yl)methyl]-3-(1H-indazol-5-yl)urea] |
| 214 °C | – | – | Nc1n[nH]c2ccc(NC(=O)N[C@@H](c3ccc(Cl)c(Cl)c3)[C@@H]3CCCCN3)cc12 (as salt: hydrochloride) [Ex 29, 1-(3-Amino-1H-indazol-5-yl)-3-{(S)-(3,4-dichlorophenyl)[(2S)-piperid-2-yl]methyl}urea] |
| 220 °C | – | – | O=C(Nc1ccc2[nH]ncc2c1)OC(c1cc(Cl)cc(Cl)c1)C1CCCCN1 (as salt: hydrochloride) [Ex 34, (3,5-Dichlorophenyl)[piperid-2-yl]methyl 1H-indazol-5-ylcarbamate((S,2S),(R,2R))] |
| 226 °C | – | – | O=C(Nc1ccc2[nH]ncc2c1)O[C@@H](c1cc(F)cc(Cl)c1)[C@@H]1CCCCN1 (as salt: hydrochloride) [Ex 35, (S)-(3-Chloro-5-fluorophenyl)[(2S)-piperid-2-yl]methyl 1H-indazol-5-ylcarbamate] |
| 172 °C | – | – | CN1CCCCC1C(OC(=O)Nc1ccc2[nH]ncc2c1)c1cc(F)cc(Cl)c1 (stereo not drawn) (as salt: hydrochloride) [Ex 36, (3-Chloro-5-fluorophenyl)(1-methylpiperid-2-yl)methyl 1H-indazol-5-ylcarbamate] |
| 194 °C | – | – | O=C(Nc1ccc2[nH]ncc2c1)O[C@@H](c1ccc(Cl)c(Cl)c1)[C@@H]1CCCCN1 (as salt: hydrochloride) [Ex 38b, (S)-(3,4-Dichlorophenyl)[(2S)-piperid-2-yl]methyl 1H-indazol-5-ylcarbamate] |
| 195 °C | < 0.1 µM | 0.5 to 2 µM | O=C(Nc1ccc2[nH]ncc2c1)N[C@@H](c1ccccc1)[C@@H]1CCCCN1 [Ex 8, 1-{(S)-(Phenyl)[(2S)-piperid-2-yl]methyl}-3-(1H-indazol-5-yl)urea] |
| 147 to 149 °C | 0.1 to 0.5 µM | 0.5 to 2 µM | O=C(Nc1ccc2[nH]ncc2c1)N[C@H](c1ccccc1)[C@H]1CCCCN1 [Ex 9, 1-{(R)-(Phenyl)[(2R)-piperid-2-yl]methyl}-3-(1H-indazol-5-yl)urea] |
| 195 °C | 0.1 to 0.5 µM | – | C=CCN1CCCC[C@H]1[C@@H](NC(=O)Nc1ccc2[nH]ncc2c1)c1ccccc1 [Ex 10, 1-{(S)-(Phenyl)[(2S)-1-allylpiperid-2-yl]methyl}-3-(1H-indazol-5-yl)urea] |
| – | < 0.1 µM | 0.5 to 2 µM | Nc1n[nH]c2ccc(NC(=O)N[C@@H](c3ccc(Cl)c(Cl)c3)[C@@H]3CCCCN3)cc12 [Ex 29, 1-(3-Amino-1H-indazol-5-yl)-3-{(S)-(3,4-dichlorophenyl)[(2S)-piperid-2-yl]methyl}urea] |
| – | 0.1 to 0.5 µM | 0.1 to 0.5 µM | O=C(Nc1ccc2[nH]ncc2c1)O[C@H](c1ccc(Cl)c(Cl)c1)[C@@H]1CCCCN1 [Ex 38c, (R)-(3,4-Dichlorophenyl)[(2S)-piperid-2-yl]methyl 1H-indazol-5-ylcarbamate] |
| – | 0.5 to 2 µM | 0.5 to 2 µM | O=C(Nc1ccc2[nH]ncc2c1)O[C@H](c1cc(F)cc(Cl)c1)[C@@H]1CCCCN1 [Ex 40, (R)-(3-Chloro-5-fluorophenyl)[(2S)-piperid-2-yl]methyl 1H-indazol-5-ylcarbamate] |
| – | < 0.1 µM | 0.1 to 0.5 µM | O=C(Nc1ccc2[nH]ncc2c1)O[C@@H](c1cccc(C(=O)NC2CCCCC2)c1)[C@@H]1CCCCN1 [Ex 47, (S)-(3-Cyclohexylcarbamoylphenyl)-(S)-piperid-2-ylmethyl (1H-Indazol-5-yl)carbamate] |
